# Columns and labels:
# [1] = Kinetic/metabolite studies: HPLC analysis of plasma after oral administration; assay type: in vivo, Sprague-Dawley rats; conditions: for Compound in plasma / metabolites observed in plasma: after oral administration, HPLC; for metabolites observed in plasma: in words; for time within which the compound is metabolised after administration: oral administration
# Experimental: Plasma samples were collected in order to test the correlation of plasma drug (or metabolite) concentration with hypoglycaemic activity, and to determine whether compounds of the invention were converted in vivo into active metabolites. The plasma levels of test compounds or metabolites also give an indication of rate of metabolism and kinetics of drug action.
# Blood samples collected from rats treated as above and collected at the same intervals were analysed using an ICI LC1150 HPLC system and a LC1210 UV detector at a wavelength of 227 nm. The HPLC system used a Merck LiChroCART 125-4 LiChrosphere 100 RP-18 HPLC and LiChrosphere 100 RP-18 guard columns. The mobile phase consisted of 70% acetonitrile and a 30% aqueous sodium phosphate buffer at pH 7.45 and was prepared using standard HPLC grade reagents and distilled water. To improve the resolution of peaks and separation of the compounds a gradient method was established where changes in the concentration of the required buffers and solvents, and the time at which these changes occur is outlined in Table 7. The volumes are expressed as percentages of the total flow rate, with the flow rate remaining constant at […].
# The data were acquired using the WinChrom Data Management system and were calibrated using stock solutions of the test compounds and Glibenclamide as an internal standard dissolved in 100% methanol
# Plasma (250 μL) collected from the rats were extracted into methanol (700 μL) and 50 μL of Glibenclamide (25 μg/ml). The mixture was then agitated with a vortex mixer for 15 sec and centrifuged for 10 min. The clear supernatant was then carefully aspirated for HPLC analysis.
# The results are outlined in Table 8 and show retention times (minutes) for the compounds and their metabolites as analysed by HPLC after oral administration in Sprague-Dawley rats. […] Glibenclamide is shown for comparison only, none of the metabolites observed with the test compounds correspond to metabolites of Glibenclamide.
# [2] = Hypoglycaemic activity: change in blood glucose after oral gavage; assay type: in vivo, Sprague Dawley rats; conditions: 1.6 mg/kg oral gavage, normal fed male rats
# Experimental: The biological activity of representative compounds of the invention was evaluated by means of several different tests. The activity of compounds of this invention as hypoglycaemic agents was measured and compared with the activity of the known compound of Example 1, using methods described in the literature. Thus normal, fed male Sprague Dawley rats weighing between 275 and 375 g were studied for changes in blood sugar levels and alterations to mean arterial blood pressure following administration of representative compounds of the invention suspended in a 5% solution of gum acacia by oral gavage at a dose of 1.6 mg/kg. The concentration of each compound was 4 mg in 10 ml, so that each rat received 1.1-1.5 ml to obtain the desired dose on a body weight basis. The blood sugar levels were recorded for each rat immediately prior to administration, and at 1, 2, and 3 hr following administration of the test compounds. Blood glucose levels were determined on blood samples taken from the tail, and analysed on an Ames blood glucometer, model 5626, and Ames, 2627 blood glucose strips (number 2). […] It is apparent that generally the heterocyclic sulphonylthioureas have greater activity than the sulphonylureas. Without wishing to be bound by any proposed mechanism for the observed effect, we believe that this may be associated with differences in lipid permeability.
# [3] = system: MCF-7 human mammary carcinoma cells; assay: Cell proliferation of MCF-7 tumour cells; assay type: cell-based; conditions: 100 μM compound
# Experimental: The ability of a representative compound of the invention to inhibit proliferation of a tumour cell line was examined. MCF-7 human mammary carcinoma cells (Woodfork et al, 1995) were grown in 25 cm^2 Corning flasks in a 5% CO2 water jacket incubator. The medium used for the culture was RPMI 1640 (ICN) and was supplemented with 10% foetal Bovine serum (Cytosystems).
# Cells and medium were examined daily to check for growth and infection. The medium was changed every second day. When cells reached 70-80% confluence, the cells were trypsinized with 0.05% trypsin (1:250, "DIFCO") and 0.02% EDTA.
# The flasks were firstly washed with a phosphate buffer to remove residual RPMI 1640 medium, then covered with 2 mL of the trypsin solution and left in the incubator for 3-5 minutes. The cells were then transferred to a conical tube containing 2 mL of medium and 10% foetal bovine serum. The cells were centrifuged at 1000 rpm for 3 minutes and the supernatant removed 5 ml of the medium was then added to the pellet of cells and resuspended with a 2 ml pipette.
# Approximately 10 μL of medium containing the cells was placed in a Neubauer haemocytometer, and the cells were counted in the 4×1 mm^2 grid per chamber. Cells were then diluted to contain 60×10^4 cells to be added to "Corning" 24 well plates (16 mm diameter). Wells respectively containing the control group and 100 μM compound 1-24 were established, and 3 wells/group/day were used to perform the cell growth study.
# Each well contained 500 μL of medium or of compound 1-24. Plates were incubated for 24 hours before counting. The medium was aspirated with different pipette tips for the different study groups 100 μL of 0.02% EDTA solution was added to each well and incubated for 5 minutes. 200 μL of trypsin-EDTA was then added, and the cells incubated for a further 5 minutes, aspirated, and placed in 0.5 mL Eppendorf tubes before counting in a haemocytometer.
# [4] = system: isolated guinea pig atria; assay: Cardiac effects on isolated atrial preparations; design: species or system English short-haired guinea pigs; conditions: bath concentration 8×10^-6 M, 37° C., maximum responses
# Experimental: Preliminary investigations were performed on isolated atrial preparations, and the results obtained using representative compounds of the invention compared to those obtained using the known compound of Example 1 and using Glibenclamide. English short-haired guinea pigs weighing between 200 and 300 g were killed by cervical dislocation. The whole heart was quickly removed by dissection and immersed in a Krebs-Henseleit solution, which had been aerated with carbogen (95% oxygen and 5% carbon dioxide). The atria were then separated by dissection in Krebs-Henseleit solution, whilst being aerated with carbogen.
# The atria were then immersed in a 10 ml organ bath containing Krebs-Henseleit solution, maintained at 37° C. for the duration of the experiment by the circulation of water through the water jackets of organ baths by a temperature controlled water pump (Braun Thermomix, Germany), and aerated with carbogen. […] Changes in tension were measured by isometric force transducers and were recorded on a four channel Grass 7P Polygraph (Grass Instruments, Quincy, Mass., USA) which was calibrated daily such that the atria functioned with a resting tension of 1 g. The rate of beating of the atria was measured by the tachograph.
# The activity of each test compound was assessed and compared to that of glibenclamide. […]
# [5] = system: MCF-7 mammary carcinoma cells; assay: Thymidine uptake ([methyl-3H] thymidine incorporation into DNA); assay type: cell-based, human; conditions: 100 μM (printed 100 μH / 100 mM), compared to control group; Glibenclamide n=3, Compound 1-24 n=4
# Experimental: Incorporation of [methyl-3H] thymidine into DNA was measured as described by Murphy and Lazarus (1983), using MCF-7 mammary carcinoma cells treated with compound 1-24 (100 μH) and a control group. The growth medium from cells cultured as described in Example 24 was aspirated from the wells, and 1 mL of fresh growth medium containing 1 μCi [3H]-thymidine (Amersham) was added to each well After 4 hours incubation, the medium was aspirated and the monolayers were washed three times with ice cold phosphate buffered saline (ICN). This was followed by three washes with 10% (v/v) ice cold trichloroacetic acid, each of 5 minutes duration. After another three washes with absolute ethanol at room temperature of 5 minutes duration, the monolayer was dried at room temperature for 10 minutes. The monolayer was […] after incubation for 12 hours with 0.5 N NaOH and 1% Triton-X 100 (Sigma). An aliquot of the cell lysate was added to 10 ml of Ultima Gold (Packard) and counted using a liquid scintillation counter (Packard model 19006A).
# [6] = Cohen, 1986; cited from earlier work
Compound in plasma [1],metabolites observed in plasma [1],SMILES,"Change in Blood Glucose, 0 hours [2]","Change in Blood Glucose, 1 Hour [2]","Change in Blood Glucose, 2 Hours [2]","Change in Blood Glucose, 3 Hours [2]",also measured
,,"Cc1ccc(S(=O)(=O)NC(=S)Nc2cccc(Br)n2)cc1 [Compound 1-21, N-[(4-Methylphenyl)sulphonyl]-N'-(6-bromopyrid-2-yl)thiourea]",0.0 mmol/L,-0.9 mmol/L,-2.1 mmol/L,-0.7 mmol/L,
no,numerous metabolites in the plasma,CCOc1cccc(NC(=S)NS(=O)(=O)c2ccc(C)cc2)n1 [Compound 1-24],0.0 mmol/L,0.5 mmol/L,-2.2 mmol/L,-1.8 mmol/L,"doubling rate of control group greater than that of cells exposed to compound [3]: approximately 25%; Rate of cell growth: mean cell number, Day 0 ([3]; day 0, n=1 in triplicate): 60,000; Rate of cell growth: mean cell number, Day 1 ([3]; day 1, control 58,000): 74,000; Rate of cell growth: mean cell number, Day 2 ([3]; day 2, control 110,000): 93,000; Rate of cell growth: mean cell number, Day 3 ([3]; day 3, control 188,000): 143,000; Rate of cell growth: mean cell number, Day 6 ([3]; day 6, control 355,000): 230,000; effect on MCF-7 tumour cell proliferation ([3]; in words): reduces MCF-7 tumour cell proliferation; inotropic activity [4]: particularly marked inotropic activity; inhibition of thymidine uptake [5]: significant inhibition; time within which the compound is metabolised after administration [1]: ≤ 2 h"
no,numerous metabolites in the plasma,"CCOc1cc(NC(=S)NS(=O)(=O)c2ccc(C)cc2)ccn1 [Compound 3-15, N-[(4-Methylphenyl)sulphonyl]-N'-(2-ethoxypyrid-4-yl)thiourea]",,,,,time within which the compound is metabolised after administration [1]: ≤ 2 h
,,"Cc1ccc(S(=O)(=O)NC(=S)Nc2ccncc2)cc1 [Compound 3-23, N-[(4-Methylphenyl)sulphonyl]-N'-(4-pyridyl)thiourea]",0.0 mmol/L,-1.0 mmol/L,-1.4 mmol/L,-2.1 mmol/L,inotropic activity [4]: particularly marked inotropic activity
,,"Cc1ccc(S(=O)(=O)NC(=S)Nc2nc(C)cc(C)n2)cc1 [Compound 4-36, N-[(4-Methylphenyl)sulphonyl]-N'-(4,6-dimethylypyrimid-2-yl)thiourea]",0.0 mmol/L,-1.1 mmol/L,-1.6 mmol/L,-1.3 mmol/L,
,,"Cc1ccc(S(=O)(=O)NC(=O)Nc2nc(C)cc(C)n2)cc1 [Compound of Example 1, reference compound]",0.0 mmol/L,-0.8 mmol/L,-2.1 mmol/L,-0.8 mmol/L,
,,CC(N/C(=N\C#N)Nc1ccncc1)C(C)(C)C (stereo not drawn) [pinacidil],,,,,vasodilator activity [6]: vasodilator activity

SMILES,Compound in plasma [1],metabolites observed in plasma [1],"Change in Blood Glucose, 0 hours [2]","Change in Blood Glucose, 1 Hour [2]","Change in Blood Glucose, 2 Hours [2]","Change in Blood Glucose, 3 Hours [2]",also measured
"CCOc1cccc(NC(=O)NS(=O)(=O)c2ccc(C)cc2)n1 [Compound 1-4, N-[(4-Methylphenyl)sulphonyl]-N'-(6-ethoxypyrid-2-yl)urea]",yes,no metabolites were observed in the 4 hour period,,,,,

# Source: patent publication US5929082A, “Potassium ion channel blockers” (priority 1995, dated 1999)
